Test results: US20250332300A1 (priority 2024, published 2025)
Structures can show the parent of a compound that is named as a salt. Where two headings read alike, the source gives them in different places. Starred links: 1 amine or outer side, 2 acyl side, 3 side chain; linkers in the order of their positions; H or OH if unused. Positions of bridges follow the written chain, without caps; N, C: chain ends. Non-standard residues stand in square brackets, D forms with d. Residues, ends and D or L forms follow the SMILES beside them. *: point of attachment. DOTA = O=C(O)CN1CCN(CC(=O)O)CCN(CC(=O)*)CCN(CC(=O)O)CC1; Trp(5-OH) = N[C@@H](Cc1c[nH]c2ccc(O)cc12)C(=O)O; NMePhe(4-F) = CN[C@@H](Cc1ccc(F)cc1)C(=O)O; NMehPhe = CN[C@@H](CCc1ccccc1)C(=O)O; Aad = N[C@@H](CCCC(=O)O)C(=O)O; Gly(cPr) = N[C@H](C(=O)O)C1CC1; NMeK = CN[C@@H](CCCCN)C(=O)O; NMeDap = CN[C@@H](CN)C(=O)O; hLys = NCCCCC[C@H](N)C(=O)O; X6 = O=C(C[*:1])[*:2]

How the values were obtained:
Format in all cases: binding
human HER2 (23-652) [1] = target: T1, human HER2 (23-652) (Homo sapiens, UniProt P04626); assay: TR-FRET competition assay for peptide potency, human HER2; design: towards human HER2 (23-652) and mouse HER2 (23-653); made in house; host or cells: mammalian cells
Protocol: (§1) Both proteins containing a His-, Avi-tag and biotin in Nterminus, were expressed in mammalian cells and produced in house. […] Standard assay conditions consist of 20 uL total volume in white 384-well plates (Greiner), in 10 mM HEPES buffer containing 150 mM NaCl, 3 mM EDTA, 0.05% Tween20 and 1% final DMSO. […] The ratiometric FRET assay readout is calculated from the ratio of the raw data of the two distinct fluorescence signals measured in time resolved mode (fluorescence 665 nm/fluorescence 620 nm). IC50 values were calculated with the standard Novartis in-house assay data analysis software (Helios software application, Novartis Institutes for BioMedical Research, unpublished) using the methods described in Comput. Methods. Programs. Biomed. 2006, 82, 31-37 (regression algorithms for nonlinear dose-response curve fitting).

human HER2 (23-652) [2] = target: T1, human HER2 (23-652); assay: Surface plasmon resonance (SPR) for assessment of peptide affinity, human HER2; design: towards human HER2 (23-652) and mouse HER2 (23-653); made in house; details: SPR, human HER2 extracellular domain, 25° C., 1:1 binding model; read-out: huHER2-SPR-ONC KD
Protocol: Each protein was immobilized either onto a SA sensorchip (Cytiva, BR-1005-31) or CM5 sensorchip (Cytiva, BR-1005-30) to a density of 800-2000 RU. […] For the assay setup the same conditions (flow rate, running buffer, peptide dilution) as described above were used. In a first step the Anti Fc IgG Ab (from Human Antibody Capture Kit, Ref. 29234600, Cytiva) was diluted into acetate pH 5.0 at 25 ug/mL and immobilized at a flow rate of 10 uL/min over 360 s to reach a density around 6000 RU. […] The peptides were tested with an association time of 280 s followed by a dissociation time of 3000 s at a flow rate of 30 uL/min. The regeneration was done using 3 M magnesium chloride regeneration solution as obtained with a contact time of 30 s at a flow rate of 10 uL/min. Curve fitting was performed using the BiacoreTM 8K evaluation software.

mouse HER2 (23-653) = mouse HER2 (23-653) (Mus musculus, UniProt P70424); assay: TR-FRET competition assay for peptide potency, mouse HER2; design: mouse HER2 (23-653) using a Cy5 labeled peptide as a probe; made in house; host or cells: mammalian cells
Protocol: as §1

[3] = TR-FRET competition with Cy5 labeled peptide probe, 0.1 nM human HER2, 24 h incubation, read-out: huHER2 TR-FRET IC50
[4] = TR-FRET competition with Cy5 labeled peptide probe, 0.1 nM mouse HER2, 24 h incubation, read-out: moHER2 TR-FRET IC50

Row | IC50 (human HER2 (23-652) [1]; [3]) [nM] | Kd (human HER2 (23-652) [2]) [nM] | IC50 (mouse HER2 (23-653); [4]) [nM] | IC50 (human HER2 (23-652) [1]; read-out: huHER2 TR-FRET IC50) [nM] | IC50 (human HER2 (23-652) [1]; value in parentheses (**): recalculated after further repetition, read-out: huHER2 TR-FRET IC50, recalculated value achieved after further repetition) [nM] | IC50 (mouse HER2 (23-653); value in parentheses (**): recalculated after further repetition, read-out: moHER2 TR-FRET IC50, recalculated value achieved after further repetition) [nM] | SMILES
1 | < 0.1 | < 0.1 | 0.1 |  |  |  | CC(=O)NCCCC[C@H]1C(=O)N[C@@H](Cc2c[nH]c3ccc(O)cc23)C(=O)N[C@@H](Cc2c[nH]c3ccccc23)C(=O)N[C@@H](C2CC2)C(=O)N(C)[C@H](C(=O)N(C)[C@@H](Cc2ccc(F)cc2)C(=O)N[C@@H](CCCCCNC(=O)CN2CCN(CC(=O)O)CCN(CC(=O)O)CCN(CC(=O)O)CC2)C(N)=O)CNC(=O)CCC[C@H](NC(C)=O)C(=O)N[C@@H](Cc2ccc(O)cc2)C(=O)N[C@@H](CO)C(=O)N(C)[C@@H](CCc2ccccc2)C(=O)N1C [Example C17] (Ac-[Aad]YS[NMehPhe][NMeK](Ac)[Trp(5-OH)]W[Gly(cPr)][NMeDap][NMePhe(4-F)][hLys](DOTA)-NH2; lactam 1-9)
2 |  | < 0.1 | 0.3 | < 0.1 |  |  | COCCOCCOCCOCCOCCOCCOCCOCCOCCOCCOCCOCCC(=O)N[C@H]1CCCC(=O)NC[C@@H](C(=O)N(C)[C@@H](Cc2ccc(F)cc2)C(=O)N[C@@H](CCCCNC(=O)c2ccc(F)nc2)C(N)=O)N(C)C(=O)[C@H](C2CC2)NC(=O)[C@H](Cc2c[nH]c3ccccc23)NC(=O)[C@H](Cc2c[nH]c3ccc(O)cc23)NC(=O)[C@H](CCCCNC(C)=O)N(C)C(=O)[C@H](CCc2ccccc2)N(C)C(=O)[C@H](CO)NC(=O)[C@H](Cc2ccc(O)cc2)NC1=O [Example F3]
3 | 0.1 | 0.1 | 0.6 |  |  |  | CC(=O)NCCCC[C@H]1C(=O)N[C@@H](Cc2c[nH]c3ccc(O)cc23)C(=O)N[C@@H](Cc2c[nH]c3ccccc23)C(=O)N[C@@H](C2CC2)C(=O)N(C)[C@H](C(=O)N(C)[C@@H](Cc2ccc(F)cc2)C(=O)N[C@@H](CCCCNC(=O)CN2CCN(CC(=O)O)CCN(CC(=O)O)CCN(CC(=O)O)CC2)C(N)=O)CNC(=O)CCC[C@H](N)C(=O)N[C@@H](Cc2ccc(O)cc2)C(=O)N[C@@H](CO)C(=O)N(C)[C@@H](CCc2ccccc2)C(=O)N1C [Example C18]
4 | 1 | 0.7 | 3.8 |  |  |  | CCCCCCCCCCCC(CCCCCCCCCCC(=O)O)(C(=O)O)C(=O)NCCOCCOCCOCCOCCOCCOCCOCCOCCOCCOCCOCCOCCOCCOCCOCCOCCOCCOCCOCCOCCOCCOCCOCCOCCC(=O)N[C@H]1CCCC(=O)NC[C@@H](C(=O)N(C)[C@@H](Cc2ccc(F)cc2)C(=O)N[C@@H](CCCCNC(=O)CN2CCN(CC(=O)O)CCN(CC(=O)O)CCN(CC(=O)O)CC2)C(N)=O)N(C)C(=O)[C@H](C2CC2)NC(=O)[C@H](Cc2c[nH]c3ccccc23)NC(=O)[C@H](Cc2c[nH]c3ccc(O)cc23)NC(=O)[C@H](CCCCNC(C)=O)N(C)C(=O)[C@H](CCc2ccccc2)N(C)C(=O)[C@H](CO)NC(=O)[C@H](Cc2ccc(O)cc2)NC1=O (stereo partly shown) [Example G1]

Further lines, the molecule ahead of its results:

Row | SMILES | IC50 (human HER2 (23-652) [1]; [3]) [nM] | Kd (human HER2 (23-652) [2]) [nM] | IC50 (mouse HER2 (23-653); [4]) [nM] | IC50 (human HER2 (23-652) [1]; read-out: huHER2 TR-FRET IC50) [nM] | IC50 (human HER2 (23-652) [1]; value in parentheses (**): recalculated after further repetition, read-out: huHER2 TR-FRET IC50, recalculated value achieved after further repetition) [nM] | IC50 (mouse HER2 (23-653); value in parentheses (**): recalculated after further repetition, read-out: moHER2 TR-FRET IC50, recalculated value achieved after further repetition) [nM]
5 | CC(=O)NCCCC[C@H]1C(=O)N[C@@H](Cc2c[nH]c3ccc(O)cc23)C(=O)N[C@@H](Cc2c[nH]c3ccccc23)C(=O)N[C@@H](C2CC2)C(=O)N(C)[C@H](C(=O)N(C)[C@@H](Cc2ccc(F)cc2)C(=O)N[C@@H](CCCCNC(=O)CN2CCN(CC(=O)O)CCN(CC(=O)O)CCN(CC(=O)O)CC2)C(=O)O)CNC(=O)CCC[C@H](NC(C)=O)C(=O)N[C@@H](Cc2ccc(O)cc2)C(=O)N[C@@H](CO)C(=O)N(C)[C@@H](CCc2ccccc2)C(=O)N1C [Example C12] | 0.3 | 0.4 | 1 |  |  | 
6 | CC(=O)NCCCC[C@H]1C(=O)N[C@@H](Cc2c[nH]c3ccc(O)cc23)C(=O)N[C@@H](Cc2c[nH]c3ccccc23)C(=O)N[C@@H](C2CC2)C(=O)N(C)[C@H](C(=O)N(C)[C@@H](Cc2ccc(F)cc2)C(=O)N[C@@H](CCCCNC(=O)CC[C@H](C(=O)O)N2CCN(CC(=O)O)CCN(CC(=O)O)CCN(CC(=O)O)CC2)C(N)=O)CNC(=O)CCC[C@H](NC(C)=O)C(=O)N[C@@H](Cc2ccc(O)cc2)C(=O)N[C@@H](CO)C(=O)N(C)[C@@H](CCc2ccccc2)C(=O)N1C [Example B12] |  | < 0.1 | < 0.1 | < 0.1 |  | 
7 | CC(=O)NCCCC[C@H]1C(=O)N[C@@H](Cc2c[nH]c3ccc(O)cc23)C(=O)N[C@@H](Cc2c[nH]c3ccccc23)C(=O)N[C@@H](C2CC2)C(=O)N(C)[C@H](C(=O)N(C)[C@@H](Cc2ccc(F)cc2)C(=O)N[C@@H](CCCCNC(=O)CN2CCN(CC(=O)O)CCN(CC(=O)O)CC2)C(N)=O)CNC(=O)CCC[C@H](NC(C)=O)C(=O)N[C@@H](Cc2ccc(O)cc2)C(=O)N[C@@H](CO)C(=O)N(C)[C@@H](CCc2ccccc2)C(=O)N1C [Example B10] |  | < 0.1 | < 0.1 | < 0.1 |  | 
8 | COCCOCCOCCOCCOCCOCCOCCOCCOCCOCCOCCOCCC(=O)N[C@H]1CCCC(=O)NC[C@@H](C(=O)N(C)[C@@H](Cc2ccc(F)cc2)C(=O)N[C@@H](CCCCN)C(N)=O)N(C)C(=O)[C@H](C2CC2)NC(=O)[C@H](Cc2c[nH]c3ccccc23)NC(=O)[C@H](Cc2c[nH]c3ccc(O)cc23)NC(=O)[C@H](CCCCNC(C)=O)N(C)C(=O)[C@H](CCc2ccccc2)N(C)C(=O)[C@H](CO)NC(=O)[C@H](Cc2ccc(O)cc2)NC1=O [Example A43, TFA salt] |  | 0.2 | 0.2 | < 0.1 |  | 
9 | CC(=O)NCCCC[C@H]1C(=O)N[C@@H](Cc2c[nH]c3ccc(O)cc23)C(=O)N[C@@H](Cc2c[nH]c3ccccc23)C(=O)N[C@@H](C2CC2)C(=O)N(C)[C@H](C(=O)N(C)[C@@H](Cc2ccc(F)cc2)C(=O)N[C@@H](CCCCNC(=O)CN2CCN(CC(=O)O)CCN(CC(=O)O)CCN(CC(=O)O)CC2)C(N)=O)CNC(=O)CCC[C@H](NC(=O)CC(=O)O)C(=O)N[C@@H](Cc2ccc(O)cc2)C(=O)N[C@@H](CO)C(=O)N(C)[C@@H](CCc2ccccc2)C(=O)N1C [Example C10] | < 0.1 | < 0.1 | < 0.1 |  |  | 
10 | CC(=O)NCCCC[C@H]1C(=O)N[C@@H](Cc2c[nH]c3ccc(O)cc23)C(=O)N[C@@H](Cc2c[nH]c3ccccc23)C(=O)N[C@@H](C2CC2)C(=O)N(C)[C@H](C(=O)N(C)[C@@H](Cc2ccc(F)cc2)C(=O)N[C@@H](CCCCNC(=O)CN2CCN(CC(=O)O)CCN(CC(=O)O)CCN(CC(=O)O)CC2)C(N)=O)CNC(=O)COC[C@H](NC(C)=O)C(=O)N[C@@H](Cc2ccc(O)cc2)C(=O)N[C@@H](CO)C(=O)N(C)[C@@H](CCc2ccccc2)C(=O)N1C [Example C16] (Ac-SYS[NMehPhe][NMeK](Ac)[Trp(5-OH)]W[Gly(cPr)][NMeDap][NMePhe(4-F)]K(DOTA)-NH2; linker 1-9 via X6) | < 0.1 | < 0.1 | 0.1 |  |  | 
11 | CC(=O)NCCCC[C@H]1C(=O)N[C@@H](Cc2c[nH]c3ccc(O)cc23)C(=O)N[C@H](Cc2c[nH]c3ccccc23)C(=O)N[C@@H](C2CC2)C(=O)N(C)[C@H](C(=O)N(C)[C@@H](Cc2ccc(F)cc2)C(=O)N[C@@H](CCCCNC(=O)CN2CCN(CC(=O)O)CCN(CC(=O)O)CCN(CC(=O)O)CC2)C(N)=O)CNC(=O)CCC[C@H](NC(C)=O)C(=O)N[C@@H](Cc2ccc(O)cc2)C(=O)N[C@@H](CO)C(=O)N(C)[C@@H](CCc2ccccc2)C(=O)N1C [Example C31] | 4840 | > 6000 | > 10000 |  |  | 
12 | CC(=O)NCCCC[C@H]1C(=O)N[C@@H](Cc2c[nH]c3ccc(O)cc23)C(=O)N[C@@H](Cc2c[nH]c3ccccc23)C(=O)N[C@@H]([C@H](C)O)C(=O)N(C)[C@H](C(=O)N(C)[C@@H](Cc2ccc(F)cc2)C(=O)N[C@@H](CCCCNC(=O)CN2CCN(CC(=O)O)CCN(CC(=O)O)CCN(CC(=O)O)CC2)C(N)=O)CNC(=O)CCC[C@H](NC(C)=O)C(=O)N[C@@H](Cc2ccc(O)cc2)C(=O)N[C@@H](CO)C(=O)N(C)[C@@H](CCc2ccccc2)C(=O)N1C [Example C6] | 0.5 | 0.3 |  |  | 0.3 | 1
